This is an account of results in patent US12479858B2, “Macrocyclic compounds as sting agonists and methods and uses thereof” (Lupin Limited, priority 2019, dated 2025).

For data set [1], the target named is T1, Human STING (Homo sapiens, UniProt Q86WV6, G230A/H232R/R293Q/R71H).
T1 construct: using human THP1-Blue™ ISG SEAP based reporter cell line (Invivogen); host or cells: THP1-Blue ISG cells (human monocytic THP-1 derived SEAP reporter line)
The data set can be described thus: Stimulation of human STING signaling in THP1 cell line (THP1-Blue ISG SEAP reporter). It is filed as cell-based. The note with it: THP1-Blue ISG cells, SEAP activity, 18-20 hours. As to the method: Biological Assay—Stimulation of Human STING Signaling in THP1 Cell Line
Compounds were tested for their STING activation potential using human THP1-Blue™ ISG SEAP based reporter cell line (Invivogen). Briefly, THP1-Blue ISG cells (100,000 cells/well) in 96 well plate were treated with varying concentrations of test and reference compounds and incubated at 37° C. with 5% CO2 for 18-20 hours. The control untreated cells were also set up. Post incubation, the cell supernatant was tested for SEAP (Secreted Embryonic Alkaline Phosphatase) activity using the QuantiBlue™ substrate reagent (Invivogen). The formation of blue coloured product was quantified by measuring absorbance at wavelength of 620 nm using PheraStar/Tecan reader. The average of duplicate readouts for each data point was plotted in GraphPad prism 6 against the concentration of test or reference compound to calculate EC50 value. The fold of SEAP induction or increase in luminescence at different data points was estimated against the un-stimulated cell control set.

Data set [2] in a line: Apparent solubility/extended kinetic solubility by UHPLC. It is filed as physicochemical. The note with it: aqueous buffer, thermodynamic from solid, phosphate buffer, 37° C. On the procedure:
Biological Assay—Determination of Apparent Solubility/Extended Kinetic Solubility by UHPLC
Test sample preparation: About 0.5 mg of the test sample was weighed and transferred in duplicate in 1 mL glass inserts of 96 well plates. 5 μL of DMSO and 1 ml of phosphate buffer were added. Allowed for equilibrium in an orbital shaker at 37° C. for 24 hrs. Later, allowed it cool to room temperature and centrifuged the 96 well plate (at 240×10 RPM for 20 min) and supernatant material was taken into collection plate, covered it with the heat resistant aluminum sheet or supernatant material was directly taken into HPLC sample vial.
Injected diluent as blank and linearity solutions in duplicate. Recorded the chromatograms and plotted the calibration curve, concentration (X-axis) versus Area (y-axis). The correlation coefficient for calibration curve should be not less than 0.95. If above criteria passes, then injected the test samples and recorded the chromatograms. In case saturated peaks are observed, then diluted the test sample with diluent as appropriate.
Calculated the slope and intercept of the calibration curve. From the standard curve, determined the solubility of the sample in μM (micromolar).

In brackets after ≈: the same amount, converted by molar mass. Where a name gives a salt, the structure may show the parent alone.

T1 sequence (Q86WV6 whole entry R71H/G230A/H232R/R293Q): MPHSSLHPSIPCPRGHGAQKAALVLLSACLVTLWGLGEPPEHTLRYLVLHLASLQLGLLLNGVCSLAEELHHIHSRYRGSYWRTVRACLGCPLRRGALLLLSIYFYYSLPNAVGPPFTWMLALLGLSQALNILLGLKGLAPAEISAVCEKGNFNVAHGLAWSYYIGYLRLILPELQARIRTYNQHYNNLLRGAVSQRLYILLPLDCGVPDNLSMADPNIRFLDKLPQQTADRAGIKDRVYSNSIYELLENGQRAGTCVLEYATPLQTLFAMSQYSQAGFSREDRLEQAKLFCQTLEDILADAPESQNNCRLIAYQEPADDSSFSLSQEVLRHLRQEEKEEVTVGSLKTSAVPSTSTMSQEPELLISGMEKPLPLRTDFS

As a reminder, the EC50 is the concentration that produces a half-maximal response. In data set [1], `CCn1nc(C)cc1C(=O)Nc1nc2cc(C(N)=O)cc3c2n1C/C=C/Cn1c(NC(=O)c2cc(C)nn2CC)nc2cc(C(=O)N[C@H]4CC[C@@H](C(=O)O)CC4)cc(c21)OCCCO3` [Compound 1, (1S,4S)-4-((E)-12-carbamoyl-1,15-bis(1-ethyl-3-methyl-1H-pyrazole-5-carboxamido)-8,9,16,19-tetrahydro-7H-6,10-dioxa-2,14,15a,19a-tetraazacyclopentadeca[3,2,1-cd:8,9,10-c′d′]diindene-4-carboxamido)cyclohexane-1-carboxylic acid] registered an EC50 of 11 to 100 nM. One may read the solubility as the concentration that dissolves in the medium under given conditions. For the compound `CCn1nc(C)cc1C(=O)Nc1nc2cc(C(N)=O)cc3c2n1C/C=C/Cn1c(NC(=O)c2cc(C)nn2CC)nc2cc(C(=O)NCCCc4nnn[nH]4)cc(c21)OCCCO3` [Compound 3, (E)-N-(3-(1H-tetrazol-5-yl)propyl)-1,15-bis(1-ethyl-3-methyl-1H-pyrazole-5-carboxamido)-8,9,16,19-tetrahydro-7H-6,10-dioxa-2,14,15a,19a-tetraazacyclopentadeca[3,2,1-cd:8,9,10-c′d′]diindene-4,12-dicarboxamide sodium salt], in data set [2], the solubility at 24 h stood at 928 µM. The compound also registered an EC50 in data set [1] of 1 to 10 nM. Turning to `CCn1nc(C)cc1C(=O)Nc1nc2cc(C(N)=O)cc3c2n1C/C=C/Cn1c(NC(=O)c2cc(C)nn2CC)nc2cc(C(=O)NCCc4nnn[nH]4)cc(c21)OCCCO3` [Compound 4, (E)-N-(2-(1H-tetrazol-5-yl)ethyl)-1,15-bis(1-ethyl-3-methyl-1H-pyrazole-5-carboxamido)-8,9,16,19-tetrahydro-7H-6,10-dioxa-2,14,15a,19a-tetraazacyclopentadeca[3,2,1-cd:8,9,10-c′d′]diindene-4,12-dicarboxamide], the solubility at 24 h in data set [2] is 149 µM (≈ 126 µg/mL). Also, the EC50 in data set [1] lay in the range of 1 to 10 nM.

In the case of `CCn1nc(C)cc1C(=O)Nc1nc2cc(C(N)=O)cc3c2n1C/C=C/Cn1c(NC(=O)c2cc(C)nn2CC)nc2cc(C(=O)NCCc4ccccc4C(=O)O)cc(c21)OCCCO3` [Compound 5, (E)-2-(2-(12-carbamoyl-1,15-bis(1-ethyl-3-methyl-1H-pyrazole-5-carboxamido)-8,9,16,19-tetrahydro-7H-6,10-dioxa-2,14,15a,19a-tetraazacyclopentadeca[3,2,1-cd:8,9,10-c′d′]diindene-4-carboxamido)ethyl)benzoic acid sodium salt], the solubility at 24 h in data set [2] came to 1120 µM. Further, the EC50 in data set [1] was in the range of 1 to 10 nM. Regarding `CCn1nc(C)cc1C(=O)Nc1nc2cc(C(N)=O)cc3c2n1C/C=C/Cn1c(NC(=O)c2cc(C)nn2CC)nc2cc(C(=O)N[C@H]4CC[C@@H](c5nnn[nH]5)CC4)cc(c21)OCCCO3` [Compound 7, (E)-N-((1S,4S)-4-(1H-tetrazol-5-yl)cyclohexyl)-1,15-bis(1-ethyl-3-methyl-1H-pyrazole-5-carboxamido)-8,9,16,19-tetrahydro-7H-6,10-dioxa-2,14,15a,19a-tetraazacyclopentadeca[3,2,1-cd:8,9,10-c′d′]diindene-4,12-dicarboxamide], the EC50 in data set [1] fell in the range of 11 to 100 nM. `CCn1nc(C)cc1C(=O)Nc1nc2cc(C(N)=O)cc3c2n1C/C=C/Cn1c(NC(=O)c2cc(C)nn2CC)nc2cc(C(=O)NCc4ncccc4C(=O)O)cc(c21)OCCCO3` [Compound 9, (E)-2-((4-carbamoyl-1,15-bis(1-ethyl-3-methyl-1H-pyrazole-5-carboxamido)-8,9,16,19-tetrahydro-7H-6,10-dioxa-2,14,15a,19a-tetraazacyclopentadeca[3,2,1-cd:8,9,10-c′d′]diindene-12-carboxamido)methyl)nicotinic acid]: the solubility at 24 h in data set [2] was determined as 100 µM (≈ 88.4 µg/mL). In data set [1], this compound had an EC50 of 11 to 100 nM.

As to `CCn1nc(C)cc1C(=O)Nc1nc2cc(C(N)=O)cc3c2n1C/C=C/Cn1c(NC(=O)c2cc(C)nn2CC)nc2cc(C(=O)NCCCn4nn[nH]c4=O)cc(c21)OCCCO3` [Compound 10, (E)-1,15-bis(1-ethyl-3-methyl-1H-pyrazole-5-carboxamido)-N-(3-(5-oxo-4,5-dihydro-1H-tetrazol-1-yl)propyl)-8,9,16,19-tetrahydro-7H-6,10-dioxa-2,14,15a,19a-tetraazacyclopentadeca[3,2,1-cd:8,9,10-c′d′]diindene-4,12-dicarboxamide], in data set [2], the solubility at 24 h stood at 631 µM (≈ 552 µg/mL). The same compound had an EC50 in data set [1] of 11 to 100 nM. The like results for `CCn1nc(C)cc1C(=O)Nc1nc2cc(C(N)=O)cc3c2n1C/C=C/Cn1c(NC(=O)c2cc(C)nn2CC)nc2cc(C(=O)NCCCc4noc(=O)[nH]4)cc(c21)OCCCO3` [Compound 11, (E)-1,15-bis(1-ethyl-3-methyl-1H-pyrazole-5-carboxamido)-N-(3-(5-oxo-4,5-dihydro-1,2,4-oxadiazol-3-yl)propyl)-8,9,16,19-tetrahydro-7H-6,10-dioxa-2,14,15a,19a-tetraazacyclopentadeca[3,2,1-cd:8,9,10-c′d′]diindene-4,12-dicarboxamide] were, in that order, 98 µM (≈ 85.7 µg/mL) and 1 to 10 nM. The like results for `CCn1nc(C)cc1C(=O)Nc1nc2cc(C(N)=O)cc3c2n1C/C=C/Cn1c(NC(=O)c2cc(C)nn2CC)nc2cc(C(=O)NCCCc4nnn[nH]4)cc(c21)OC[C@@H](N1C2CCC1COC2)CO3` [Compound 16, (8S,E)-N4-(3-(1H-tetrazol-5-yl)propyl)-8-(3-oxa-8-azabicyclo[3.2.1]octan-8-yl)-1,15-bis(1-ethyl-3-methyl-1H-pyrazole-5-carboxamido)-8,9,16,19-tetrahydro-7H-6,10-dioxa-2,14,15a,19a-tetraazacyclopentadeca[3,2,1-cd:8,9,10-c′d′]diindene-4,12-dicarboxamide sodium salt] were, in that order, 243 µM and 1 to 10 nM. As to `CCn1nc(C)cc1C(=O)Nc1nc2cc(C(N)=O)cc3c2n1C/C=C/Cn1c(NC(=O)c2cc(C)nn2CC)nc2cc(C(=O)NCCCc4nnn[nH]4)cc(c21)OC[C@H](N1C2CCC1COC2)CO3` [Compound 17, (8R,E)-N4-(3-(1H-tetrazol-5-yl)propyl)-8-(3-oxa-8-azabicyclo[3.2.1]octan-8-yl)-1,15-bis(1-ethyl-3-methyl-1H-pyrazole-5-carboxamido)-8,9,16,19-tetrahydro-7H-6,10-dioxa-2,14,15a,19a-tetraazacyclopentadeca[3,2,1-cd:8,9,10-c′d′]diindene-4,12-dicarboxamide sodium salt], the EC50 in data set [1] was in the range of 11 to 100 nM.

`CCn1nc(C)cc1C(=O)Nc1nc2cc(C(N)=O)cc3c2n1C/C=C/Cn1c(NC(=O)c2cc(C)nn2CC)nc2cc(C(=O)NCCCn4cc(C(=O)O)cn4)cc(c21)OC[C@H](N1C2CCC1COC2)CO3` [Compound 19, 1-(3-((8R,E)-8-(3-oxa-8-azabicyclo[3.2.1]octan-8-yl)-12-carbamoyl-1,15-bis(1-ethyl-3-methyl-1H-pyrazole-5-carboxamido)-8,9,16,19-tetrahydro-7H-6,10-dioxa-2,14,15a,19a-tetraazacyclopentadeca[3,2,1-cd:8,9,10-c′d′]diindene-4-carboxamido)propyl)-1H-pyrazole-4-carboxylic acid sodium salt] came in with an EC50 in data set [1] of 11 to 100 nM. Same read-out and setting: next, `CCn1nc(C)cc1C(=O)Nc1nc2cc(C(N)=O)cc3c2n1C/C=C/Cn1c(NC(=O)c2cc(C)nn2CC)nc2cc(C(=O)N[C@H]4CC[C@H](C(=O)O)CC4)cc(c21)OCC(N1CC2CCC(C1)O2)CO3` (stereo partly drawn) [Compound 20, (1R,4R)-4-((E)-8-(8-oxa-3-azabicyclo[3.2.1]octan-3-yl)-12-carbamoyl-1,15-bis(1-ethyl-3-methyl-1H-pyrazole-5-carboxamido)-8,9,16,19-tetrahydro-7H-6,10-dioxa-2,14,15a,19a-tetraazacyclopentadeca[3,2,1-cd:8,9,10-c′d′]diindene-4-carboxamido)cyclohexane-1-carboxylic acid]: 11 to 100 nM; `CCn1nc(C)cc1C(=O)Nc1nc2cc(C(N)=O)cc3c2n1C/C=C/Cn1c(NC(=O)c2cc(C)nn2CC)nc2cc(C(=O)N[C@H]4CC[C@H](c5nnn[nH]5)CC4)cc(c21)OCC(N1CC2CCC(C1)O2)CO3` (stereo partly drawn) [Compound 22, (E)-N-((1R,4R)-4-(1H-tetrazol-5-yl)cyclohexyl)-8-(8-oxa-3-azabicyclo[3.2.1]octan-3-yl)-1,15-bis(1-ethyl-3-methyl-1H-pyrazole-5-carboxamido)-8,9,16,19-tetrahydro-7H-6,10-dioxa-2,14,15a,19a-tetraazacyclopentadeca [3,2,1-cd:8,9,10-c′d′]diindene-4,12-dicarboxamide]: 11 to 100 nM.
